The results in this text go back to US20230145868A1, “UREA INHIBITORS OF MICRO-RNA” (Board of Regents, The University of Texas System, priority 2020, published 2023).

Assay [1] has as its system miR-10b. As to the kind of experiment: Luciferase reporter assay of miR-10b inhibition, MCF7 cells. The assay is classed as cell-based. The following applies: Homo sapiens, MCF7, 48 h. The source says: (§1) To identify miR-10b inhibitors, a luciferase reporter system was designed with complementary oligonucleotides for miR-10b.This luciferase reporter would repress Renilla luciferase signal in the presence of a functional mature miR-10b. However, in the presence of a small molecule that can inhibit mature miR-10b expression or affect its downstream function, the luciferase expression is restored again.
(§2) The PsiCHECK™-2 luciferase reporter vector was acquired from Promega™, Complementary oligonucleotides for hsa-miR-10b were designed based on the mature miRNA sequence and obtained from Thermo Fisher Scientific. In the design of the microRNA target sequence, several base pairs were added to have two different restriction sites recognizable by the enzyme SgfI at one side, and PmeI on the other (present in the vector as well). In addition, the insert was designed with a restriction site for SacI enzyme in order to have an additional site to digest the vector when monitoring colonies for the presence/absence of the insert. The designed oligonucleotides were annealed as follows: Complementary strands were mixed at a 1:1 molar ratio in a micro centrifuge tube. The mixture was diluted to a final concentration of 1 pmol/μl with a buffer solution of 10 mM Tris, 1 mM EDTA, and 50 mM NaCl (pH 8.0). Mixes were incubated at 95° C. for 5 min, and then the heat was reduced gradually for 70 min, until reaching 4° C. The annealed oligonucleotides were digested along with the PsiCHECK™2 vector with SgfI and PmeI and ligated at the 3′-UTR (downstream) of the Renilla luciferase reporter gene in the PsiCHECK™-2vector. Insert sequences were further confirmed in two ways: enzymatic digestion and sequencing.
(§3) MCF7 cells were seeded 24 h prior to transfection in 96 well plates (2.0×10^4 cells/well). For testing the sensitivity of the assay, antagomiRs and pre-miRs against miR-10b were used at a final concentration of 100 nM. For testing small molecule miRNA inhibitors, the compounds of interest were added to a final concentration of 10 μM. The assay was done in MCF7 or MDA-MB-231 cells at approximately 60% confluence using Lipofectamine in Opti-Mem media with the final vector concentration of 250 ng/mL. All transfections were performed in triplicate for statistical analysis. The cells were incubated at 37° C. for 6 h, followed by replacement of the transfected media with fresh media. After 48 h incubation, the media was removed, and cells were lysed and assayed with a Dual Luciferase Assay Kit (Promega) using a Vi-Tech luminometer. The ratio of Renilla to firefly luciferase expression was calculated for each of the triplicates.
On the technique in general: Reporter assays use an easily measured gene product as a stand-in for the process of interest.

The test system of assay [2] is miR-10b. The assay is described as follows: Luciferase reporter assay of miR-10b inhibition, MDA-MB-231 cells. The following applies: Homo sapiens, MDA-MB-231, 48 h. In kind it is cell-based.
Excerpt: as §1, §2, §3

The test system of assay [3] is mature miR-10b. The assay is described as follows: RT-qPCR of mature miR-10b. In kind it is cell-based, human. The following applies: AGS gastric cell line; normalized to U6; vs DMSO. As to the method: (§4) Potential small molecule miRNA inhibitors were tested in MCF7 cells, a metastatic cell line (MM231) and an HCC cell line (HepG2) through RT-qPCR. Cells were seeded in 12-well plates 24 h before treatments at a confluence of 50-60%. They were treated at a concentration of 10 μM linifanib (positive control) or DMSO (negative control), and RNA was collected after 24 and 48 h. MicroRNA expression was tested using TaqMan microRNA assay (Applied Biosystems). The cDNA was synthesized using TaqMan Reverse Transcription Reagents kit (Applied Biosystems) and employed for quantitative RT-qPCR analysis together with TaqMan probes and SsoFastSupermix (Bio-rad). Primers and probes were purchased for hsa-miR-10b, hsa-pri-miR-10b, U6, and U48 snRNA that was used as an internal control.
(§5) To detect the levels of the precursor sequences, cDNA was synthesized using the SuperScript III cDNA kit (Invitrogen). Diluted cDNA was used for RT-qPCR analysis using iQ SYBR Green Supermix (Bio-Rad) with primers designed by in-house. Experiments were performed in triplicate; treated samples were compared to the DMSO-treated controls and normalized to the internal control. Relative expression levels were calculated using the 2-ΔCt method.
A general note: Quantitative PCR measures a nucleic acid by following its amplification.

Assay [4] relates to pre-miR-10b. As to the kind of experiment: RT-qPCR of precursor miR-10b. The following applies: AGS gastric cell line; normalized to U6; vs DMSO. In kind it is cell-based, human. As to the method:
as §4, §5

The mark [5] stands for this setting: Table 4, MCF7, 10 μM compound, vs negative control (DMSO), mean of triplicate, read-out: n-fold increase in luciferase expression, Mean.
Setting [6] is: Table 4, MCF7, 10 μM compound, vs negative control (DMSO), replicate #1, read-out: n-fold increase in luciferase expression, #1.
[7] abbreviates: Table 4, MCF7, 10 μM compound, vs negative control (DMSO), replicate #2, read-out: n-fold increase in luciferase expression, #2.
[8] abbreviates: Table 4, MCF7, 10 μM compound, vs negative control (DMSO), replicate #3, read-out: n-fold increase in luciferase expression, #3.
Setting [9] is: Table 6, MCF7, second biological replicant, 10 μM compound, mean of triplicate, read-out: n-fold increase in luciferase expression, Mean.
Where [10] appears, read: Table 6, MCF7, second biological replicant, 10 μM compound, replicate #1, read-out: n-fold increase in luciferase expression, #1.
Setting [11] is: Table 6, MCF7, second biological replicant, 10 μM compound, replicate #2, read-out: n-fold increase in luciferase expression, #2.
[12] abbreviates: Table 6, MCF7, second biological replicant, 10 μM compound, replicate #3, read-out: n-fold increase in luciferase expression, #3.
[13] abbreviates: Table 5, MDA-MB-231, 10 μM compound, vs negative control (DMSO), mean of triplicate, read-out: n-fold increase in luciferase expression, Mean.
The mark [14] stands for this setting: Table 5, MDA-MB-231, 10 μM compound, vs negative control (DMSO), replicate #1, read-out: n-fold increase in luciferase expression, #1.
The mark [15] stands for this setting: Table 5, MDA-MB-231, 10 μM compound, vs negative control (DMSO), replicate #2, read-out: n-fold increase in luciferase expression, #2.
Where [16] appears, read: Table 5, MDA-MB-231, 10 μM compound, vs negative control (DMSO), replicate #3, read-out: n-fold increase in luciferase expression, #3.
Setting [17] is: Table 7, MDA-MB-231, second biological replicant, 10 μM compound, mean of triplicate, read-out: n-fold increase in luciferase expression, Mean.
Setting [18] is: Table 7, MDA-MB-231, second biological replicant, 10 μM compound, replicate #1, read-out: n-fold increase in luciferase expression, #1.
[19] abbreviates: Table 7, MDA-MB-231, second biological replicant, 10 μM compound, replicate #2, read-out: n-fold increase in luciferase expression, #2.
Where [20] appears, read: Table 7, MDA-MB-231, second biological replicant, 10 μM compound, replicate #3, read-out: n-fold increase in luciferase expression, #3.
Where [21] appears, read: Table 3, MCF7, 10 μM compound, vs negative control (DMSO), mean of triplicate, read-out: n-fold increase in luciferase expression, Mean.
Where [22] appears, read: Table 3, MCF7, 10 μM compound, vs negative control (DMSO), replicate #1, read-out: n-fold increase in luciferase expression, #1.
[23] abbreviates: Table 3, MCF7, 10 μM compound, vs negative control (DMSO), replicate #2, read-out: n-fold increase in luciferase expression, #2.
[24] abbreviates: Table 3, MCF7, 10 μM compound, vs negative control (DMSO), replicate #3, read-out: n-fold increase in luciferase expression, #3.

`Cc1ccc(F)c(NC(=O)Nc2ccc(-c3cccc4c3NC(=O)C4)cc2)c1` [Example 7, 1-(2-fluoro-5-methylphenyl)-3-(4-(2-oxoindolin-7-yl)phenyl)urea]: the fold induction at 10 µM in assay [1] (setting [5]) is 2.41; in assay [1] (setting [6]), 1.34; in assay [1] (setting [7]), 5.06; in assay [1] (setting [8]), 0.822; in assay [1] (setting [9]), 1.25; in assay [1] (setting [10]) it was 1.86. Further, the fold induction at 10 µM in assay [1] (setting [11]) worked out at 0.957; in assay [1] (setting [12]), 0.935; in assay [2] (setting [13]) it was 1.05; in assay [2] (setting [14]), 1.01; in assay [2] (setting [15]), 1.09; in assay [2] (setting [16]) it was 1.05. Moreover, the fold induction at 10 µM amounted to 1.19 in assay [2] (setting [17]), 1.16 in assay [2] (setting [18]), 1.31 in assay [2] (setting [19]) and 1.11 in assay [2] (setting [20]).
In the case of `Cc1ccc(F)c(NC(=O)Nc2ccc(-c3cnc(N)nc3)cc2)c1` [Example 5, 1-(4-(2-aminopyrimidin-5-yl)phenyl)-3-(2-fluoro-5-methylphenyl)urea], the fold induction at 10 µM in assay [1] (setting [21]) is 2.86; in assay [1] (setting [22]), 1.99; in assay [1] (setting [23]) it was 1.49; in assay [1] (setting [24]), 5.1; in assay [1] (setting [9]), 2.12; in assay [1] (setting [10]), 3.03. In addition, the fold induction at 10 µM in assay [1] (setting [11]) came to 1.73; in assay [1] (setting [12]) it was 1.59; in assay [2] (setting [13]) it was 1.04; in assay [2] (setting [14]), 1.13; in assay [2] (setting [15]), 1.01; in assay [2] (setting [16]), 0.99. Further, the fold induction at 10 µM in assay [2] (setting [17]) was 1.3; in assay [2] (setting [18]) it was 0.26; in assay [2] (setting [19]), 1.57; in assay [2] (setting [20]), 2.06. The “level of mature miR-10b” value in assay [3] is listed as “reduce the level of mature miR-10b”. Moreover, the “expression of pre-miR-10b” value in assay [4] is “increased expression of pre-miR-10b”.
`Cc1ccc(F)c(NC(=O)Nc2ccc(-c3ccccn3)cc2)c1` [Example 8, 1-(2-fluoro-5-methylphenyl)-3-(4-(pyridin-2-yl)phenyl)urea]: the fold induction at 10 µM in assay [1] (setting [5]) turned out to be 3.92; in assay [1] (setting [6]), 4.6; in assay [1] (setting [7]) it was 6.07; in assay [1] (setting [8]), 1.08; in assay [1] (setting [9]) it was 1.24; in assay [1] (setting [10]) it was 1.82. For the same molecule, the fold induction at 10 µM in assay [1] (setting [11]) came out at 1.04; in assay [1] (setting [12]) it was 0.857; in assay [2] (setting [13]), 0.78; in assay [2] (setting [14]) it was 0.566; in assay [2] (setting [15]), 0.991; in assay [2] (setting [16]) it was 0.793. Besides, the fold induction at 10 µM in assay [2] (setting [17]) stood at 1.15; in assay [2] (setting [18]), 1.39; in assay [2] (setting [19]) it was 1; in assay [2] (setting [20]), 1.05.
As for `Cc1ccc(F)c(NC(=O)Nc2ccc(-c3cccc4[nH]ncc34)cc2)c1` [Example 3, 1-(4-(1H-indazol-4-yl)phenyl)-3-(2-fluoro-5-methylphenyl)urea], the fold induction at 10 µM in assay [1] (setting [21]) stood at 0.26; in assay [1] (setting [22]) it was 0.238; in assay [1] (setting [23]), 0.246; in assay [1] (setting [24]), 0.292; in assay [1] (setting [9]) it was 0.18; in assay [1] (setting [10]) it was 0.257. The fold induction at 10 µM in assay [1] (setting [11]) was 0.176; in assay [1] (setting [12]) it was 0.117; in assay [2] (setting [13]), 0.46; in assay [2] (setting [14]), 0.423; in assay [2] (setting [15]), 0.643; in assay [2] (setting [16]) it was 0.312. For the same molecule, the fold induction at 10 µM was determined as 0.17 in assay [2] (setting [17]), 0.193 in assay [2] (setting [18]), 0.149 in assay [2] (setting [19]) and 0.163 in assay [2] (setting [20]).
On to `Nc1n[nH]c2cccc(-c3ccc(NC(=O)Nc4ccncc4)cc3)c12` [Example 9, 1-(4-(3-amino-1H-indazol-4-yl)phenyl)-3-(pyridin-4-yl)urea], for which the fold induction at 10 µM was found to be 2.11 in assay [1] (setting [5]); 0.94 in assay [1] (setting [6]); 4.2 in assay [1] (setting [7]); 1.2 in assay [1] (setting [8]); 1.29 in assay [1] (setting [9]); 2.17 in assay [1] (setting [10]). In addition, the fold induction at 10 µM in assay [1] (setting [11]) is 0.859; in assay [1] (setting [12]) it was 0.84; in assay [2] (setting [13]) it was 1.41; in assay [2] (setting [14]) it was 1.14; in assay [2] (setting [15]), 2.05; in assay [2] (setting [16]) it was 1.05. The fold induction at 10 µM in assay [2] (setting [17]) came to 1.56; in assay [2] (setting [18]), 1.39; in assay [2] (setting [19]) it was 1.61; in assay [2] (setting [20]) it was 1.67.
